Data on 1 compound can be found in patent US9603364B2 (Dow AgroSciences LLC, priority 2013, dated 2017).

Bounds are passed on as bounds.

Holding throughout (experiment): General post-emergent herbicidal activity, foliar application
What all share (assay type): in vivo

The subject of assay [1] is Amaranthus retroflexus L. (pigweed, redroot). How it is done:
(§1) A weighed amount, determined by the highest rate to be tested, of each test compound was placed in a 25 mL glass vial and was dissolved in 4 mL of a 97:3 v/v (volume/volume) mixture of acetone and dimethyl sulfoxide to obtain concentrated stock solutions which will be referred to as General Purpose Solvent. […] The concentrated stock solutions obtained were diluted with 20 mL of an aqueous mixture containing water, General Purpose Solvent, isopropyl alcohol, Atplus 411F crop oil concentrate, and Triton X-155 surfactant in a 46:42:12:1.0:0.02 v/v ratio to obtain spray solutions containing the highest application rates. Additional application rates were obtained by serial dilution of 12 mL of the high rate solution into a solution containing 2 mL of 97:3 v/v (volume/volume) mixture of acetone and dimethyl sulfoxide and 10 mL of an aqueous mixture containing water, General Purpose Solvent, isopropyl alcohol, Atplus 411F crop oil concentrate, and Triton X-155 surfactant in a 46:42:12:1.0:0.02 v/v ratio to obtain 1/2×, 1/4×, 1/8× and 1/16× rates of the high rate. […] Control plants were sprayed in the same manner with the solvent blank.
(§2) The treated plants and control plants were placed in a greenhouse as described above and watered by sub-irrigation to prevent wash-off of the test compounds. After 14 days, the condition of the test plants as compared with that of the untreated plants was determined visually and scored on a scale of 0 to 100 percent where 0 corresponds to no injury and 100 corresponds to complete kill.
(§3) By applying the well-accepted probit analysis as described by J. Berkson in […], 48, 565 (1953) and by D. Finney in “Probit Analysis” Cambridge University Press (1952), the dose response data gathered as expressed above can be used to calculate GR20, GR50 and GR80 values, which are defined as growth reduction factors that correspond to the effective dose of herbicide required to kill or control 20 percent, 50 percent or 80 percent, respectively, of a target plant. Data not expressed in Table A may have been used to calculate some of the GR80 values in Table B. In some cases, the GR80 values may be extrapolations calculated based on the slope of the dose response curve for individual compounds listed in Table B.

For assay [2], the system named is Chenopodium album L. (lambsquarters, common). The method, then:
as §1, §2, §3

In assay [3] the test system is Echinochloa crus-galli (L.) Beauv. (barnyardgrass). The method, then:
as §1, §2, §3

The subject of assay [4] is Euphorbia heterophylla L. (poinsettia, wild). The method, then:
as §1, §2, §3

For assay [5], the system named is Helianthus annuus L. (sunflower, common). The method, then: as §1, §2, §3
The subject of assay [6] is Viola tricolor L. (pansy). How it is done:
as §1, §2, §3

The next assay relates to Oryza sativa L. (rice). Conditions: Oryza sativa, 336 h, scored after 14 days, read-out: % Visual Growth Reduction ORYSA. The method, then: as §1, §2
For the next assay, the system named is Zea mays L. (corn). As to conditions: 336 h, scored after 14 days, read-out: % Visual Growth Reduction ZEAMX. How it is done: as §1, §2
[7] abbreviates: calculated by probit analysis, dose for 80% visual injury, may be extrapolated.

With `COC(=O)c1nc(C(C)(C)F)cc(N)c1Cl` [Compound F9, methyl 4-amino-3-chloro-6-(2-fluoropropan-2-yl)picolinate], the pest or weed control at 70 g/ha in assay [1] (Amaranthus retroflexus, 336 h, 70 g ai/ha, foliar post-emergent, scored after 14 days, read-out: % Visual Growth Reduction AMARE) stood at 100%; in assay [2] (Chenopodium album, 336 h, 70 g ai/ha, foliar post-emergent, scored after 14 days, read-out: % Visual Growth Reduction CHEAL), 70%; in assay [3] (Echinochloa crus-galli, 336 h, 70 g ai/ha, foliar post-emergent, scored after 14 days, read-out: % Visual Growth Reduction ECHCG), 0%; in assay [4] (Euphorbia heterophylla, 336 h, 70 g ai/ha, foliar post-emergent, scored after 14 days, read-out: % Visual Growth Reduction EPHHL) it was 85%; in assay [5] (Helianthus annuus, 336 h, 70 g ai/ha, foliar post-emergent, scored after 14 days, read-out: % Visual Growth Reduction HELAN) it was 50%; in assay [6] (Viola tricolor, 336 h, 70 g ai/ha, foliar post-emergent, scored after 14 days, read-out: % Visual Growth Reduction VIOTR), 40%. Besides, the pest or weed control at 140 g/ha in assay [1] (Amaranthus retroflexus, 336 h, 140 g ai/ha, foliar post-emergent, scored after 14 days, read-out: % Visual Growth Reduction AMARE) was 100%; in assay [2] (Chenopodium album, 336 h, 140 g ai/ha, foliar post-emergent, scored after 14 days, read-out: % Visual Growth Reduction CHEAL) it was 85%; in assay [3] (Echinochloa crus-galli, 336 h, 140 g ai/ha, foliar post-emergent, scored after 14 days, read-out: % Visual Growth Reduction ECHCG) it was 0%; in assay [4] (Euphorbia heterophylla, 336 h, 140 g ai/ha, foliar post-emergent, scored after 14 days, read-out: % Visual Growth Reduction EPHHL), 100%; in assay [5] (Helianthus annuus, 336 h, 140 g ai/ha, foliar post-emergent, scored after 14 days, read-out: % Visual Growth Reduction HELAN), 50%; in assay [6] (Viola tricolor, 336 h, 140 g ai/ha, foliar post-emergent, scored after 14 days, read-out: % Visual Growth Reduction VIOTR) it was 30%. For the same compound, the “GR80 Value AMARE” value in assay [1] (setting [7]) was 13.7 g ai/ha. Also, the “GR80 Value CHEAL” value in assay [2] (setting [7]) is recorded as 110 g ai/ha. Moreover, the “GR80 Value ECHCG” value in assay [3] (setting [7]) is reported as above 140 g ai/ha. Further, the “GR80 Value EPHHL” value in assay [4] (setting [7]) is 49.4 g ai/ha. In addition, the “GR80 Value HELAN” value in assay [5] (setting [7]) is listed as 237 g ai/ha. Also, the “GR80 Value VIOTR” value in assay [6] (setting [7]) is above 140 g ai/ha. Further, the plant injury at 70 g/ha with Oryza sativa L. (rice) (70 g ai/ha) and in the assay on Zea mays L. (corn) (70 g ai/ha) was 0% in each case. The plant injury at 140 g/ha with Oryza sativa L. (rice) (140 g ai/ha) came out at 0%; with Zea mays L. (corn) (140 g ai/ha), 15%.
